From patent US8889370B2, “Method of determining inhibitors of coagulation” (Siemens Healthcare Diagnostics Products GmbH, priority 2010, dated 2014)

Experiments:
[1] = biological target: T1, F Xa (Homo sapiens, UniProt P00742); assay: LOCI chemiluminescence competition assay for F Xa inhibitors in standard human plasma, ligand B-r-G-R-H; format: binding; set-up: 10 μl of a reagent containing human F Xa (approx. 1000 IU/l); details: standard human plasma with increasing inhibitor concentrations, anti-F Xa antibody-coated Chemibeads, FIG. 9
Method: The signal-producing system used was the LOCI system according to example 4.
The Chemibeads used herein were additionally coated with a commercially available polyclonal antibody to F Xa. For this, the antibody was linked covalently to the latex particles in a coupling ratio of 10 mg of antibody to […] of particles. The Sensibeads used herein were additionally coated with streptavidin.
The ligand used was the biotinylated peptide aldehyde biotinyl-Ttds-D-Arg-Gly-Arg-H (B-r-G-R—H).
In the absence of an F Xa inhibitor, the ligand binds, via its biotin residue, to the streptavidin-coated Sensibeads and, via its peptide moiety, to the F Xa which itself binds to the antibody-coated Chemibeads, and a chemiluminescence signal is generated (see also FIG. 1).
10 μl of a reagent containing human F Xa (approx. 1000 IU/l) and fibrin polymerization inhibitor peptide glycine-proline-arginine-proline (10 mg/ml) were admixed with 2 μl of sample, 20 μl of Chemibeads (400 μg/ml) and 10 μl of the ligand (6 μM) and incubated for 5 minutes. After addition of 60 μl of Sensibeads (200 μg/ml) and incubation for 10 minutes, the mix was filled with water to 260 μl and the chemiluminescence signal was measured. As FIG. 9 indicates, the chemiluminescence signal is reduced as a function of the type and concentration of the direct F Xa and thrombin inhibitors metered in.

[2] = biological target: T1, F Xa; details: Prasa et al. 1997; Perzborn 2009; read-out: binding constant for F Xa; cited from earlier work
[3] = biological target: thrombin (Homo sapiens, UniProt P00734); set-up: binding constant for thrombin: unit not given here; details: cited from earlier work

Row | chemiluminescence signal [1] | Compound | Ki [2] [µM] | binding to thrombin, times more weakly than to F Xa ([3]; Perzborn 2009) | binding constant for thrombin ([3]; Prasa et al. 1997)
1 | not reduced | CC1CNc2c(cccc2S(=O)(=O)N[C@@H](CCCNC(=N)N)C(=O)N2CC[C@@H](C)C[C@@H]2C(=O)O)C1 (stereo partly drawn) [argatroban] | 210 |  | 
2 | inversely proportional | O=C(NC[C@H]1CN(c2ccc(N3CCOCC3=O)cc2)C(=O)O1)c1ccc(Cl)s1 [rivaroxaban] |  | up to 10 000 times | 
3 | not reduced | hirudin |  |  | 2.7×10^−14
